Measurements: patent US6358885B1, “Substituted phenylheterocyclic herbicides” (Mississippi State University, priority 1992, dated 2002)

Columns and labels:
Experiment in all cases: Test B preemergence/postemergence greenhouse plant response rating 0 to 10
[1] = test system: barnyardgrass; type: in vivo, Echinochloa crus-galli; details: for Plant response rating, Barnyardgrass: 0 to 10 scale
Method in brief: (§1)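 Postemergence treatment of plants two to eighteen cm tall ran alongside preemergence treatment of planted seed, each using compound in a non-phytotoxic solvent.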

[2] = test system: cocklebur; type: in vivo, Xanthium pensylvanicum; details: for Plant response rating, Cocklebur: 0 to 10 scale
Method in brief: as §1

[3] = test system: crabgrass; type: in vivo, Digitaria spp.; details: for Plant response rating, Crabgrass: 0 to 10 scale
Method in brief: as §1

[4] = test system: giant foxtail; type: in vivo, Setaria faberii; details: 0 to 10 scale
Method in brief: as §1

[5] = test system: lambsquarters; type: in vivo, Chenopodium album; details: 0 to 10 scale
Method in brief: as §1

[6] = test system: wild buckwheat; type: in vivo, Polygonum convolvulus; details: 0 to 10 scale
Method in brief: as §1

[7] = test system: wild oat; type: in vivo, Avena fatua; details: 0 to 10 scale
Method in brief: as §1

[8] = test system: purple nutsedge; type: in vivo, Cyperus rotundus; details: 0 to 10 scale
Method in brief: as §1

Compound | Plant response rating (0 to 10 scale), Barnyardgrass ([1]; POSTEMERGENCE, Rate 50 g/ha) | Plant response rating, Barnyardgrass ([1]; POSTEMERGENCE, Rate 200 g/ha) | Plant response rating, Barnyardgrass ([1]; PREEMERGENCE, Rate 50 g/ha) | Plant response rating, Barnyardgrass ([1]; Rate 200 g/ha, PREEMERGENCE) | Plant response rating (0 to 10 scale), Cocklebur ([2]; POSTEMERGENCE, Rate 50 g/ha) | Plant response rating, Cocklebur ([2]; POSTEMERGENCE, Rate 200 g/ha) | Plant response rating, Cocklebur ([2]; PREEMERGENCE, Rate 50 g/ha) | Plant response rating, Cocklebur ([2]; Rate 200 g/ha, PREEMERGENCE) | Plant response rating (0 to 10 scale), Crabgrass ([3]; POSTEMERGENCE, Rate 50 g/ha) | Plant response rating, Crabgrass ([3]; POSTEMERGENCE, Rate 200 g/ha) | Plant response rating, Crabgrass ([3]; PREEMERGENCE, Rate 50 g/ha) | Plant response rating, Crabgrass ([3]; Rate 200 g/ha, PREEMERGENCE) | Plant response rating, Giant foxtail ([4]; POSTEMERGENCE, Rate 50 g/ha) | Plant response rating, Giant foxtail ([4]; POSTEMERGENCE, Rate 200 g/ha) | Plant response rating, Giant foxtail ([4]; PREEMERGENCE, Rate 50 g/ha) | Plant response rating, Giant foxtail ([4]; Rate 200 g/ha, PREEMERGENCE) | Plant response rating, Lambsquarter ([5]; POSTEMERGENCE, Rate 50 g/ha) | Plant response rating, Lambsquarter ([5]; POSTEMERGENCE, Rate 200 g/ha) | Plant response rating, Lambsquarter ([5]; PREEMERGENCE, Rate 50 g/ha) | Plant response rating, Lambsquarter ([5]; Rate 200 g/ha, PREEMERGENCE) | other results
CCS(=O)(=O)Oc1cc(-c2nn3c(c2Cl)CCCC3)c(F)cc1Cl [Compound 25] | 3 | 5 | 2 | 6 | 7 | 8 | 0 | 1 | 3 | 2 | 5 | 7 | 3 | 4 | 2 | 7 | 9 | 10 | 9 | 10 | Plant response rating, Wild buckwheat ([6]; POSTEMERGENCE, Rate 50 g/ha): 10; Plant response rating, Wild buckwheat ([6]; POSTEMERGENCE, Rate 200 g/ha): 10; Plant response rating, Wild buckwheat ([6]; PREEMERGENCE, Rate 50 g/ha): 8; Plant response rating, Wild buckwheat ([6]; Rate 200 g/ha, PREEMERGENCE): 10; Plant response rating, Wild oat ([7]; POSTEMERGENCE, Rate 50 g/ha): 3; Plant response rating, Wild oat ([7]; POSTEMERGENCE, Rate 200 g/ha): 4; Plant response rating, Wild oat ([7]; Rate 200 g/ha, PREEMERGENCE): 4; Plant response rating, Nutsedge ([8]; POSTEMERGENCE, Rate 50 g/ha): 2; Plant response rating, Nutsedge ([8]; POSTEMERGENCE, Rate 200 g/ha): 8; Plant response rating, Nutsedge ([8]; PREEMERGENCE, Rate 50 g/ha): 0; Plant response rating, Nutsedge ([8]; Rate 200 g/ha, PREEMERGENCE): 0
CC(C)Oc1cc(-c2nn3c(c2Cl)CCCC3)c(F)cc1Cl [Compound 21] | 6 | 9 | 2 | 7 | 8 | 10 | 2 | 2 | 2 | 6 | 2 | 8 | 4 | 7 | 5 | 9 | 10 | 10 | 10 | 10 | Plant response rating, Wild buckwheat ([6]; POSTEMERGENCE, Rate 50 g/ha): 10; Plant response rating, Wild buckwheat ([6]; POSTEMERGENCE, Rate 200 g/ha): 10; Plant response rating, Wild buckwheat ([6]; PREEMERGENCE, Rate 50 g/ha): 7; Plant response rating, Wild buckwheat ([6]; Rate 200 g/ha, PREEMERGENCE): 9; Plant response rating, Wild oat ([7]; POSTEMERGENCE, Rate 50 g/ha): 4; Plant response rating, Wild oat ([7]; POSTEMERGENCE, Rate 200 g/ha): 6; Plant response rating, Wild oat ([7]; Rate 200 g/ha, PREEMERGENCE): 6; Plant response rating, Nutsedge ([8]; POSTEMERGENCE, Rate 50 g/ha): 1; Plant response rating, Nutsedge ([8]; POSTEMERGENCE, Rate 200 g/ha): 3; Plant response rating, Nutsedge ([8]; PREEMERGENCE, Rate 50 g/ha): 0; Plant response rating, Nutsedge ([8]; Rate 200 g/ha, PREEMERGENCE): 0
